Reference: patent US9770026B2, “Substituted pyrimidine compound and uses thereof” (Shenyang Sinochem Agrochemicals R&D Co., Ltd., priority 2012, dated 2017)

Key:
[1] = tested on: rice blast; assay: microbe, parasite or virus in culture; assay type: cell-based; conditions: Pyricularia oryzae; for inhibition at 25 ppm: read-out: inhibition rate against rice blast, 25 ppm, in vitro
[2] = tested on: cucumber gray mold; assay: fungicidal activity in vitro (inhibition rate) against cucumber gray mold; assay type: cell-based; conditions: 25 ppm, in vitro; read-out: inhibition rate against cucumber gray mold
[3] = tested on: Diamond back moth; assay: insecticidal activity against diamond back moth, airbrush spray; assay type: in vivo; conditions: 72 h; for pest or weed control at 10 µg/mL: 10 mg/L; for pest or weed control at 100 µg/mL: 100 mg/L; for pest or weed control at 600 µg/mL: 600 mg/L
How it was run: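 Airbrush leaf-disc spray test: both faces of 2 cm cabbage discs received 0.5 ml of test solution at 0.7 kg/cm^2. Solutions were made in acetone:methanol (1:1) and brought to concentration with 0.1% Tween 80 in water. Ten second-instar larvae per disc, triplicates, were held at 25° C and 60˜70% R.H., with mortality recorded at 72 hrs.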

[4] = tested on: armyworm; assay: bioactivity test against armyworm, airbrush spray; assay type: in vivo; conditions: 72 h; for pest or weed control at 10 µg/mL: 10 mg/L; for pest or weed control at 10 µg/mL / pest or weed control at 100 µg/mL / pest or weed control at 600 µg/mL: read-out: Insecticidal activity against armyworm (%); for pest or weed control at 100 µg/mL: 100 mg/L; for pest or weed control at 600 µg/mL: 600 mg/L
[5] = tested on: Green peach aphids (Myzus Persicae Sulzer); assay: bioactivity test against green peach aphid, airbrush foliar spray; assay type: in vivo; conditions: Myzus persicae, foliar, 48 h; for pest or weed control at 5 µg/mL: 5 mg/L; for pest or weed control at 10 µg/mL: 10 mg/L; for pest or weed control at 100 µg/mL: 100 mg/L; for pest or weed control at 600 µg/mL: 600 mg/L
How it was run: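 Aphids (15-30 per cabbage leaf disc) on moist filter paper were airbrush-sprayed at 10 psi, 0.5 mL, with compound from acetone:methanol (1:1) diluted in water with 0.1% tween 80. Held at 25±1 C, 60±5% RH; survivors counted after 48 hrs to give death rates.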

[6] = tested on: carmine spider mite; assay: bioactivity test against carmine spider mite, airbrush spray; assay type: in vivo; conditions: Tetranychus cinnabarinus, 72 h; for pest or weed control at 10 µg/mL: 10 mg/L; for pest or weed control at 10 µg/mL / pest or weed control at 100 µg/mL / pest or weed control at 600 µg/mL: contrastive test, read-out: Insecticidal activity against carmine spider mite (% ); for pest or weed control at 100 µg/mL: 100 mg/L; for pest or weed control at 600 µg/mL: 600 mg/L
How it was run: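 Broadbean seedlings infested with adult mites were sprayed with compound (acetone/methanol stock diluted in 0.1% Tween 80 water) by airbrush at 0.7 kg/cm^2, 0.5 ml. Three replicates were run. Mortality was scored after 72 hrs.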

[7] = tested on: corn rust; assay: protectant activity in vivo against corn rust; conditions: Zea mays, 168 h; for pest or weed control at 6.25 µg/mL: read-out: control effect against corn rust (%), 6.25 mg/L; for pest or weed control at 6.25 µg/mL / pest or weed control at 25 µg/mL / pest or weed control at 100 µg/mL / pest or weed control at 400 µg/mL: protectant activity; for pest or weed control at 25 µg/mL: read-out: control effect against corn rust (%), 25 mg/L; for pest or weed control at 100 µg/mL: read-out: control effect against corn rust (%), 100 mg/L; for pest or weed control at 400 µg/mL: read-out: control effect against corn rust (%), 400 mg/L
[8] = tested on: wheat powdery mildew; assay: protectant activity in vivo against wheat powdery mildew; conditions: Triticum aestivum, 168 h; for pest or weed control at 6.25 µg/mL: read-out: control effect against wheat powdery mildew (%), 6.25 mg/L; for pest or weed control at 6.25 µg/mL / pest or weed control at 25 µg/mL / pest or weed control at 100 µg/mL / pest or weed control at 400 µg/mL: protectant activity; for pest or weed control at 25 µg/mL: read-out: control effect against wheat powdery mildew (%), 25 mg/L; for pest or weed control at 100 µg/mL: read-out: control effect against wheat powdery mildew (%), 100 mg/L; for pest or weed control at 400 µg/mL: read-out: control effect against wheat powdery mildew (%), 400 mg/L
[9] = tested on: cucumber downy mildew; assay: protectant activity in vivo against cucumber downy mildew; conditions: Cucumis sativus, 168 h; for pest or weed control at 25 µg/mL: read-out: control effect against cucumber downy mildew (%), 25 mg/L; for pest or weed control at 50 µg/mL: read-out: control effect against cucumber downy mildew (%), 50 mg/L; for pest or weed control at 100 µg/mL: read-out: control effect against cucumber downy mildew (%), 100 mg/L; for pest or weed control at 400 µg/mL: read-out: control effect against cucumber downy mildew (%), 400 mg/L
[10] = contrastive test, read-out: Insecticidal activity against peach aphid (%)

CCc1ncnc(NCCc2ccc(Oc3ccc(C(F)(F)F)cc3)nc2)c1Cl [III-202]
inhibition at 25 ppm [1]: 80 to 99% | inhibition at 25 ppm [2]: 80 to 99% | pest or weed control at 100 ppm ([3]; 100 ppm, mortality after 72 hrs, read-out: control (test results against diamond back moth)): 80 to 99% | pest or weed control at 600 ppm ([3]; 600 ppm, mortality after 72 hrs, read-out: control (test results against diamond back moth)): 100% | pest or weed control at 10 µg/mL [4]: 65% | pest or weed control at 100 µg/mL [4]: 100% | pest or weed control at 600 µg/mL [4]: 100% | pest or weed control at 100 ppm ([4]; 100 ppm, mortality after 72 h): 100% | pest or weed control at 600 ppm ([4]; 600 ppm, mortality after 72 h): 100% | pest or weed control at 1.25 µg/mL ([5]; 1.25 mg/L, contrastive test, read-out: Insecticidal activity against peach aphid (%)): 94% | pest or weed control at 2.5 µg/mL ([5]; 2.5 mg/L, contrastive test, read-out: Insecticidal activity against peach aphid (%)): 100% | pest or weed control at 5 µg/mL [5, 10]: 100% | pest or weed control at 10 µg/mL [5, 10]: 100% | pest or weed control at 100 µg/mL [5, 10]: 100% | pest or weed control at 600 µg/mL [5, 10]: 100% | pest or weed control at 10 ppm ([5]; 10 ppm, death rate after 48 hrs): 100% | pest or weed control at 100 ppm ([5]; 100 ppm, death rate after 48 hrs): 100% | pest or weed control at 600 ppm ([5]; 600 ppm, death rate after 48 hrs): 100% | pest or weed control at 100 ppm ([6]; 100 ppm, mortality after 72 hrs): 100% | pest or weed control at 600 ppm ([6]; 600 ppm, mortality after 72 hrs): 100% | pest or weed control at 100 ppm ([7]; read-out: protectant activity against corn rust in vivo, 100 ppm): 100% | pest or weed control at 400 ppm ([7]; read-out: protectant activity against corn rust in vivo, 400 ppm): 100% | pest or weed control at 6.25 µg/mL [8]: 95% | pest or weed control at 25 µg/mL [8]: 100% | pest or weed control at 100 µg/mL [8]: 100% | pest or weed control at 400 µg/mL [8]: 100% | pest or weed control at 6.25 ppm ([8]; read-out: protectant activity against wheat powdery mildew in vivo, 6.25 ppm): 80 to 99% | pest or weed control at 25 ppm ([8]; read-out: protectant activity against wheat powdery mildew in vivo, 25 ppm): 100% | pest or weed control at 100 ppm ([8]; read-out: protectant activity against wheat powdery mildew in vivo, 100 ppm): 100% | pest or weed control at 400 ppm ([8]; read-out: protectant activity against wheat powdery mildew in vivo, 400 ppm): 100% | pest or weed control at 6.25 µg/mL ([9]; read-out: control effect against cucumber downy mildew (%), 6.25 mg/L, protectant activity): 100% | pest or weed control at 12.5 µg/mL ([9]; read-out: control effect against cucumber downy mildew (%), 12.5 mg/L, protectant activity): 100% | pest or weed control at 25 µg/mL ([9]; protectant activity): 100% | pest or weed control at 50 µg/mL ([9]; protectant activity): 100% | pest or weed control at 100 µg/mL ([9]; protectant activity): 100% | pest or weed control at 400 µg/mL ([9]; protectant activity): 100% | pest or weed control at 6.25 ppm ([9]; read-out: protectant activity against cucumber downy mildew in vivo, 6.25 ppm): 100% | pest or weed control at 12.5 ppm ([9]; read-out: protectant activity against cucumber downy mildew in vivo, 12.5 ppm): 100% | pest or weed control at 25 ppm ([9]; read-out: protectant activity against cucumber downy mildew in vivo, 25 ppm): 100% | pest or weed control at 50 ppm ([9]; read-out: protectant activity against cucumber downy mildew in vivo, 50 ppm): 100% | pest or weed control at 100 ppm ([9]; read-out: protectant activity against cucumber downy mildew in vivo, 100 ppm): 100%

CCc1ncnc(OCCc2ccc(OCc3ccccc3)cc2)c1Cl [CK14, reference compound]
inhibition at 8.3 ppm ([1]; read-out: inhibition rate against rice blast, 8.3 ppm, in vitro): 0% | inhibition at 25 ppm [2]: 0% | pest or weed control at 10 µg/mL [3]: 0% | pest or weed control at 100 µg/mL [3]: 10% | pest or weed control at 600 µg/mL [3]: 67% | pest or weed control at 600 µg/mL [4]: 0% | pest or weed control at 10 µg/mL [5, 10]: 0% | pest or weed control at 100 µg/mL [5, 10]: 70% | pest or weed control at 600 µg/mL [5, 10]: 100% | pest or weed control at 10 µg/mL [6]: 6% | pest or weed control at 100 µg/mL [6]: 33% | pest or weed control at 600 µg/mL [6]: 100% | pest or weed control at 6.25 µg/mL [7]: 0% | pest or weed control at 25 µg/mL [7]: 0% | pest or weed control at 100 µg/mL [7]: 20% | pest or weed control at 400 µg/mL [7]: 100% | pest or weed control at 6.25 µg/mL [8]: 0% | pest or weed control at 25 µg/mL [8]: 0% | pest or weed control at 100 µg/mL [8]: 10% | pest or weed control at 400 µg/mL [8]: 85% | pest or weed control at 25 µg/mL ([9]; protectant activity): 0% | pest or weed control at 50 µg/mL ([9]; protectant activity): 0% | pest or weed control at 100 µg/mL ([9]; protectant activity): 40% | pest or weed control at 400 µg/mL ([9]; protectant activity): 98%

CCc1ncnc(OCCc2ccc(Oc3ccccc3)cc2)c1Cl [CK13, reference compound]
inhibition at 25 ppm [1]: 0% | inhibition at 25 ppm [2]: 0% | pest or weed control at 10 µg/mL [3]: 0% | pest or weed control at 100 µg/mL [3]: 16% | pest or weed control at 600 µg/mL [3]: 67% | pest or weed control at 10 µg/mL [4]: 0% | pest or weed control at 100 µg/mL [4]: 0% | pest or weed control at 600 µg/mL [4]: 86% | pest or weed control at 5 µg/mL [5, 10]: 0% | pest or weed control at 10 µg/mL [5, 10]: 83% | pest or weed control at 100 µg/mL [5, 10]: 98% | pest or weed control at 600 µg/mL [5, 10]: 100% | pest or weed control at 10 µg/mL [6]: 0% | pest or weed control at 100 µg/mL [6]: 0% | pest or weed control at 600 µg/mL [6]: 100% | pest or weed control at 6.25 µg/mL [7]: 0% | pest or weed control at 25 µg/mL [7]: 0% | pest or weed control at 100 µg/mL [7]: 0% | pest or weed control at 400 µg/mL [7]: 100% | pest or weed control at 6.25 µg/mL [8]: 0% | pest or weed control at 25 µg/mL [8]: 0% | pest or weed control at 100 µg/mL [8]: 0% | pest or weed control at 400 µg/mL [8]: 40% | pest or weed control at 25 µg/mL ([9]; protectant activity): 0% | pest or weed control at 50 µg/mL ([9]; protectant activity): 0% | pest or weed control at 100 µg/mL ([9]; protectant activity): 25% | pest or weed control at 400 µg/mL ([9]; protectant activity): 85%

Cc1ncnc(NC(=O)Cc2ccc(Oc3ccc(C(F)(F)F)cc3)cc2)c1Cl [CK61, reference compound]
inhibition at 25 ppm [1]: 0% | inhibition at 25 ppm [2]: 0% | pest or weed control at 600 µg/mL [3]: 0% | pest or weed control at 600 µg/mL [4]: 0% | pest or weed control at 10 µg/mL [5, 10]: 0% | pest or weed control at 100 µg/mL [5, 10]: 0% | pest or weed control at 600 µg/mL [5, 10]: 88% | pest or weed control at 600 µg/mL [6]: 0% | pest or weed control at 400 µg/mL [7]: 0% | pest or weed control at 400 µg/mL [8]: 70% | pest or weed control at 25 µg/mL ([9]; protectant activity): 30% | pest or weed control at 50 µg/mL ([9]; protectant activity): 85% | pest or weed control at 100 µg/mL ([9]; protectant activity): 90% | pest or weed control at 400 µg/mL ([9]; protectant activity): 100%
